Experimental data reported in patent US20220132852A1, “PESTICIDALLY ACTIVE HETEROCYCLIC DERIVATIVES WITH SULFUR CONTAINING SUBSTITUENTS” (SYNGENTA CROP PROTECTION AG, priority 2019, published 2022).

Columns and labels:
[1] = test system: Diabrotica balteata (Corn Root Worm); test: Example B1: Activity against Diabrotica balteata (corn root worm), sprayed maize sprouts; type: in vivo; conditions: 96 h, application rate 200 ppm, L2 larvae on sprayed maize sprouts, 4 days after infestation, read-out: effect in at least one of the two categories (mortality or growth inhibition)
Description: Example B1: Activity Against Diabrotica balteata (Corn Root Worm)
Maize sprouts placed onto an agar layer in 24-well microtiter plates were treated with aqueous test solutions prepared from 10′000 ppm DMSO stock solutions by spraying. After drying, the plates were infested with L2 larvae (6 to 10 per well). The samples were assessed for mortality and growth inhibition in comparison to untreated samples 4 days after infestation.

[2] = test system: Plutella xylostella (Diamond Back Moth); test: Example B3: Activity against Plutella xylostella (diamond back moth), artificial diet; type: in vivo; conditions: 192 h, application rate 200 ppm, eggs on artificial diet, 8 days after infestation, read-out: effect in at least one of the two categories (mortality or growth inhibition)
[3] = test system: Frankliniella occidentalis (Western Flower Thrips); test: Example B8: Activity against Frankliniella occidentalis (western flower thrips); type: in vivo; conditions: foliar, 168 h, application rate 200 ppm, sprayed sunflower leaf discs, mixed ages, 7 days after infestation
Description: Example B8: Activity Against Frankliniella occidentalis (Western Flower Thrips)
Sunflower leaf discs were placed on agar in 24-well microtiter plates and sprayed with aqueous test solutions prepared from […] stock solutions. After drying the leaf discs were infested with a Frankliniella population of mixed ages. The samples were assessed for mortality 7 days after infestation.

[4] = test system: Euschistus heros (Neotropical Brown Stink Bug); test: Example B2: Activity against Euschistus heros (neotropical brown stink bug), sprayed soybean leaves; type: in vivo; conditions: 120 h, application rate 200 ppm, N2 nymphs on sprayed soybean leaves, 5 days after infestation, read-out: effect in at least one of the two categories (mortality or growth inhibition)
Description: Example B2: Activity Against Euschistus heros (Neotropical Brown Stink Bug)
Soybean leaves on agar in 24-well microtiter plates were sprayed with aqueous test solutions prepared from 10′000 ppm DMSO stock solutions. After drying the leaves were infested with N2 nymphs. The samples were assessed for mortality and growth inhibition in comparison to untreated samples 5 days after infestation.

[5] = test system: Bemisia tabaci (Cotton White Fly); test: Example B7: Activity against Bemisia tabaci (cotton white fly); type: in vivo; conditions: foliar, 144 h, application rate 200 ppm, adult white flies on sprayed cotton leaf discs, 6 days after incubation
Description: Example B7: Activity Against Bemisia tabaci (Cotton White Fly)
Cotton leaf discs were placed on agar in 24-well microtiter plates and sprayed with aqueous test solutions prepared from 10′000 ppm DMSO stock solutions. After drying the leaf discs were infested with adult white flies. The samples were checked for mortality 6 days after incubation.

[6] = test system: Spodoptera littoralis (Egyptian Cotton Leaf Worm); test: Example B6: Activity against Spodoptera littoralis (Egyptian cotton leaf worm); type: in vivo; conditions: foliar, 72 h, application rate 200 ppm, L1 larvae on sprayed cotton leaf discs, 3 days after infestation, read-out: control (mortality, anti-feeding effect or growth inhibition)
In short: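 Cotton leaf discs on agar were sprayed with aqueous test solutions prepared from 10'000 ppm DMSO stocks. After drying, each disc was infested with five L1 larvae. Mortality, anti-feeding and growth inhibition were scored against untreated samples 3 days after infestation.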

[7] = test system: Myzus persicae (Green Peach Aphid); test: whole plant or invertebrate; type: in vivo; conditions: foliar, 144 h, application rate 200 ppm, sprayed sunflower leaf discs, mixed ages, 6 days after infestation
Description: Example B4: Activity Against Myzus persicae (Green Peach Aphid) Feeding/Contact Activity
Sunflower leaf discs were placed onto agar in a 24-well microtiter plate and sprayed with aqueous test solutions prepared from 10′000 ppm DMSO stock solutions. After drying, the leaf discs were infested with an aphid population of mixed ages. The samples were assessed for mortality 6 days after infestation.

[8] = test system: Myzus persicae (Green Peach Aphid); test: Example B5: Activity against Myzus persicae (green peach aphid), systemic activity; type: in vivo; conditions: 144 h, test rate 24 ppm, roots of pea seedlings in test solution, mixed ages, 6 days
Description: Example B5: Activity Against Myzus persicae (Green Peach Aphid) Systemic Activity
Roots of pea seedlings infested with an aphid population of mixed ages were placed directly into aqueous test solutions prepared from 10′000 DMSO stock solutions. The samples were assessed for mortality 6 days after placing seedlings into test solutions.

In the case of `CCSc1cc(C(C)(C)C#N)cnc1-c1cc2cnn(CC(F)(F)C(F)(F)F)c2cn1` [Compound P6, 2-[5-ethylsulfanyl-6-[1-(2,2,3,3,3-pentafluoropropyl)pyrazolo[3,4-c]pyridin-5-yl]-3-pyridyl]-2-methyl-propanenitrile], the percent effect (mortality or growth inhibition) at 200 ppm [1] is reported as ≥ 80%, the percent effect (mortality or growth inhibition) at 200 ppm [2] is reported as ≥ 80% and the mortality at 200 ppm [3] is reported as ≥ 80%. The percent effect (mortality or growth inhibition) at 200 ppm [4] was ≥ 80%, the mortality at 200 ppm [5] was ≥ 80% and the percent control (mortality, anti-feedant effect or growth inhibition) at 200 ppm [6] was ≥ 80%. The mortality at 200 ppm [7] was ≥ 80%.
`CCSc1ccc[n+]([O-])c1-c1cc2ccn(CC(F)(F)C(F)(F)F)c2cn1` [PN2, 5-(3-ethylsulfanyl-1-oxido-pyridin-1-ium-2-yl)-1-(2,2,3,3,3-pentafluoropropyl) pyrrolo[2,3-c]pyridine] gave a melting point of 181 to 185 °C.
For `CCSc1cc(C2(C#N)CC2)cnc1-c1cc2cnn(CC(F)(F)C(F)(F)F)c2cn1` [Compound P10, 1-[5-ethylsulfanyl-6-[1-(2,2,3,3,3-pentafluoropropyl)pyrazolo[3,4-c]pyridin-5-yl]-3-pyridyl]cyclopropanecarbonitrile], the percent effect (mortality or growth inhibition) at 200 ppm [1] was ≥ 80%, the percent effect (mortality or growth inhibition) at 200 ppm [2] was ≥ 80% and the mortality at 200 ppm [3] was ≥ 80%. For the same molecule, the percent effect (mortality or growth inhibition) at 200 ppm [4] was ≥ 80% and the percent control (mortality, anti-feedant effect or growth inhibition) at 200 ppm [6] was ≥ 80%.
With `CCS(=O)(=O)c1ccc(-c2ncccn2)nc1-c1cc2cnn(CC(F)(F)C(F)(F)F)c2cn1` [Compound P25, 5-(3-ethylsulfonyl-6-pyrimidin-2-yl-2-pyridyl)-1-(2,2,3,3,3-pentafluoropropyl) pyrazolo[3,4-c]pyridine] the percent effect (mortality or growth inhibition) at 200 ppm [1] was ≥ 80%, the mortality at 24 ppm [8] was ≥ 80% and the percent effect (mortality or growth inhibition) at 200 ppm [2] was ≥ 80%. The mortality at 200 ppm [3] was ≥ 80%, the percent effect (mortality or growth inhibition) at 200 ppm [4] was ≥ 80% and the percent control (mortality, anti-feedant effect or growth inhibition) at 200 ppm [6] was ≥ 80%. The mortality at 200 ppm [7] was ≥ 80%.
In the case of `CCSc1ccc(Cl)nc1-c1cc2ccn(CC(F)(F)C(F)(F)F)c2cn1` [Compound P48, 5-(6-chloro-3-ethylsulfanyl-2-pyridyl)-1-(2,2,3,3,3-pentafluoropropyl) pyrrolo[2,3-c]pyridine], the melting point is reported as 185 to 188 °C.
With `CCS(=O)(=O)c1cc(C(F)(F)F)cnc1-c1cc2cnn(CC(F)(F)C(F)(F)F)c2cn1` [Compound P31, 5-[3-ethylsulfonyl-5-(trifluoromethyl)-2-pyridyl]-1-(2,2,3,3,3-pentafluoropropyl) pyrazolo[3,4-c] pyridine] the percent effect (mortality or growth inhibition) at 200 ppm [1] was ≥ 80%, the percent effect (mortality or growth inhibition) at 200 ppm [2] was ≥ 80% and the percent effect (mortality or growth inhibition) at 200 ppm [4] was ≥ 80%. For the same molecule, the mortality at 200 ppm [5] was ≥ 80% and the percent control (mortality, anti-feedant effect or growth inhibition) at 200 ppm [6] was ≥ 80%.
In the case of `CCS(=O)(=O)c1cc(C2(C#N)CC2)cnc1-c1cc2cnn(CC(F)(F)C(F)(F)F)c2cn1` [Compound P11, 1-[5-ethylsulfonyl-6-[1-(2,2,3,3,3-pentafluoropropyl)pyrazolo[3,4-c]pyridin-5-yl]-3-pyridyl]cyclopropanecarbonitrile], the percent effect (mortality or growth inhibition) at 200 ppm [1] is reported as ≥ 80%, the percent effect (mortality or growth inhibition) at 200 ppm [2] is reported as ≥ 80% and the mortality at 200 ppm [3] is reported as ≥ 80%. The percent effect (mortality or growth inhibition) at 200 ppm [4] was ≥ 80%, the mortality at 200 ppm [5] was ≥ 80% and the percent control (mortality, anti-feedant effect or growth inhibition) at 200 ppm [6] was ≥ 80%. For the same molecule, the mortality at 200 ppm [7] was ≥ 80%.
With `CCS(=O)(=O)c1cc(C(C)(C)C#N)cnc1-c1cc2cnn(CC(F)(F)C(F)(F)F)c2cn1` [Compound P5, 2-[5-ethylsulfonyl-6-[1-(2,2,3,3,3-pentafluoropropyl)pyrazolo[3,4-c]pyridin-5-yl]-3-pyridyl]-2-methyl-propanenitrile] the percent effect (mortality or growth inhibition) at 200 ppm [1] was ≥ 80%, the mortality at 24 ppm [8] was ≥ 80% and the percent effect (mortality or growth inhibition) at 200 ppm [2] was ≥ 80%. The percent effect (mortality or growth inhibition) at 200 ppm [4] was ≥ 80%, the mortality at 200 ppm [5] was ≥ 80% and the percent control (mortality, anti-feedant effect or growth inhibition) at 200 ppm [6] was ≥ 80%. The mortality at 200 ppm [7] was ≥ 80%.
